Values of other authors in PubChem BioAssay AID1259410 (Chemical Carcinogenesis Research Information System (CCRIS), 2018).

System: rodent tumor promotion studies, tumor incidence
Test: CCRIS tumor promotion studies

In the case of `Cc1cccc(Nc2cc(Cl)nc(SCC(=O)O)n2)c1C`, the outcome (Carcinogen: 2-ACETYLAMINOFLUORENE, 53-96-3, Doses [Carcinogen]: 0.02% IN DIET FOR 8 WK, Doses [Promoter]: 0, 0.1% IN DIET FOR 37 WK BEGINNING 2 WK POST CARCINOGEN TREATMENT (STUDY DURATION: 39 WK), Route [Carcinogen]: ORAL, Route [Promoter]: ORAL, Species: RAT, Strain/Sex: F344/MALE) is listed as “liver: adenoma”, the outcome (Carcinogen: DIETHYLNITROSAMINE, 55-18-5, Doses [Carcinogen]: 150 MG/KG BW ONCE, Doses [Promoter]: 0, 0.1% IN DIET FOR 37 WK BEGINNING 2 WK POST CARCINOGEN TREATMENT (STUDY DURATION: 39 WK), Route [Carcinogen]: INTRAPERITONEAL, Route [Promoter]: ORAL, Species: RAT, Strain/Sex: F344/MALE) is listed as “liver: adenoma” and the outcome (Carcinogen: DIETHYLNITROSAMINE, 55-18-5, Doses [Carcinogen]: 150 MG/KG ONCE, Doses [Promoter]: 0.1% IN DIET BEGINNING 2 WK POST CARCINOGEN DOSE AND CONTINUING FOR 54 WK (STUDY DURATION: 56 WK), Route [Carcinogen]: INTRAPERITONEAL, Route [Promoter]: ORAL, Species: RAT, Strain/Sex: F344/MALE) is listed as “liver: hepatocellular carcinoma or neoplastic nodule”. The outcome (Carcinogen: DIETHYLNITROSAMINE, 55-18-5, Doses [Carcinogen]: 150 MG/KG ONCE, Doses [Promoter]: 0.1% IN DIET BEGINNING 2 WK POST CARCINOGEN DOSE FOR 71 WK FOLLOWED BY CONTROL DIET FOR DURATION OF STUDY (STUDY DURATIO, Route [Carcinogen]: INTRAPERITONEAL, Route [Promoter]: ORAL, Species: RAT, Strain/Sex: F344/MALE) was “liver: hepatocellular carcinoma or neoplastic nodule” and the outcome (Carcinogen: DIETHYLNITROSAMINE, 55-18-5, Doses [Carcinogen]: 150 MG/KG ONCE, Doses [Promoter]: 0.1% IN DIET BEGINNING 11 WK POST CARCINOGEN DOSE AND CONTINUING FOR DURATION OF STUDY (STUDY DURATION: 56 WK), Route [Carcinogen]: INTRAPERITONEAL, Route [Promoter]: ORAL, Species: RAT, Strain/Sex: F344/MALE) was “liver: hepatocellular carcinoma or neoplastic nodule”.
In the case of `O=C(O)c1cc(=O)[nH]c(=O)[nH]1`, the outcome (Carcinogen: 1,2-DIMETHYLHYDRAZINE DIHYDROCHLORIDE, 306-37-6, Doses [Carcinogen]: 100 MG/KG ONCE 18 HR AFTER 2/3 PARTIAL HEPATECTOMY, Doses [Promoter]: 0, 1% IN DIET FOR 10 WK BEGINNING 1 WK POST CARCINOGEN DOSE (STUDY DURATION: 54 WK), Route [Carcinogen]: INTRAPERITONEAL, Route [Promoter]: ORAL, Species: RAT, Strain/Sex: F344/MALE) is listed as “liver: hepatocellular carcinoma”, the outcome (Carcinogen: 1,2-DIMETHYLHYDRAZINE DIHYDROCHLORIDE, 306-37-6, Doses [Carcinogen]: 100 MG/KG ONCE 18 HR AFTER 2/3 PARTIAL HEPATECTOMY, Doses [Promoter]: 0, 1% IN DIET FOR 20 WK BEGINNING 1 WK POST CARCINOGEN DOSE (STUDY DURATION: 54 WK), Route [Carcinogen]: INTRAPERITONEAL, Route [Promoter]: ORAL, Species: RAT, Strain/Sex: F344/MALE) is listed as “liver: hepatocellular carcinoma” and the outcome (Carcinogen: 1,2-DIMETHYLHYDRAZINE DIHYDROCHLORIDE, 306-37-6, Doses [Carcinogen]: 100 MG/KG ONCE 18 HR AFTER 2/3 PARTIAL HEPATECTOMY, Doses [Promoter]: 0, 1% IN DIET FOR 29 WK BEGINNING 1 WK POST CARCINOGEN DOSE (STUDY DURATION: 54 WK), Route [Carcinogen]: INTRAPERITONEAL, Route [Promoter]: ORAL, Species: RAT, Strain/Sex: F344/MALE) is listed as “liver: hepatocellular carcinoma”. For the same compound, the outcome (Carcinogen: 1,2-DIMETHYLHYDRAZINE DIHYDROCHLORIDE, 306-37-6, Doses [Carcinogen]: 100 MG/KG ONCE 18 HR AFTER 2/3 PARTIAL HEPATECTOMY, Doses [Promoter]: 0, 1% IN DIET FOR 40 WK BEGINNING 1 WK POST CARCINOGEN DOSE (STUDY DURATION: 54 WK), Route [Carcinogen]: INTRAPERITONEAL, Route [Promoter]: ORAL, Species: RAT, Strain/Sex: F344/MALE) was “liver: hepatocellular carcinoma”, the outcome (Carcinogen: 1,2-DIMETHYLHYDRAZINE DIHYDROCHLORIDE, Doses [Carcinogen]: 100 MG/KG ONCE, 18 HR AFTER PARTIAL HEPATECTOMY, Doses [Promoter]: 1% IN DIET FOR 10 OR 13 MO BEGINNING 1 WK AFTER INITIATION, Route [Carcinogen]: INTRAPERITONEAL, Route [Promoter]: ORAL, Species: RAT, Strain/Sex: F344/MALE) was “liver: hepatocellular carcinoma” and the outcome (Carcinogen: 1,2-DIMETHYLHYDRAZINE, 540-73-8, Doses [Carcinogen]: 100 MG/KG ONCE 18 HR AFTER TWO-THIRDS PARTIAL HEPATECTOMY, Doses [Promoter]: 0, 1% IN DIET BEGINNING 1 WK POST CARCINOGEN DOSE (STUDY DURATION: 54 WK), Route [Carcinogen]: INTRAPERITONEAL, Route [Promoter]: ORAL, Species: RAT, Strain/Sex: F344/MALE) was “liver: hepatocellular carcinoma”. The outcome (Carcinogen: DIETHYLNITROSAMINE, 55-18-5, Doses [Carcinogen]: 200 MG/KG BW ONCE, Doses [Promoter]: 0, 1% IN DIET FOR 4 WK BEGINNING 1 WK POST CARCINOGEN DOSE, PARTIAL HEPATECTOMY PERFORMED AT END OF SECOND WK (STUDY DUR, Route [Carcinogen]: INTRAPERITONEAL, Route [Promoter]: ORAL, Species: RAT, Strain/Sex: F344/MALE) was “liver: carcinoma”, the outcome (Carcinogen: DIETHYLNITROSAMINE, 55-18-5, Doses [Carcinogen]: 200 MG/KG ONCE, Doses [Promoter]: 0, 1% IN DIET BEGINNING 1 WK POST CARCINOGEN DOSE (STUDY DURATION: 60 WK), Route [Carcinogen]: INTRAPERITONEAL, Route [Promoter]: ORAL, Species: RAT, Strain/Sex: F344/MALE) was “liver: hepatocellular carcinoma” and the outcome (Carcinogen: DIETHYLNITROSAMINE, 55-18-5, Doses [Carcinogen]: 200 MG/KG ONCE, Doses [Promoter]: 0, 1% IN DIET BEGINNING 5 WK POST CARCINOGEN DOSE (STUDY DURATION: 60 WK), Route [Carcinogen]: INTRAPERITONEAL, Route [Promoter]: ORAL, Species: RAT, Strain/Sex: F344/MALE) was “liver: hepatocellular carcinoma”. The outcome (Carcinogen: N-NITROSO(2-HYDROXYPROPYL)(2-OXOPROPYL)AMINE, 61499-28-3, Doses [Carcinogen]: 170 MG/KG (TOTAL DOSE) ADMINISTERED CONTINUOUSLY OVER 9 D VIA OSMOTIC PUMP, Doses [Promoter]: 0, 1% IN DIET BEGINNING 2 WK POST CARCINOGEN TREATMENT AND CONTINUING FOR DURATION OF STUDY (STUDY DURATION: 29 WK), Route [Carcinogen]: SUBCUTANEOUS IMPLANT, Route [Promoter]: ORAL, Species: HAMSTER, Strain/Sex: SYRIAN/FEMALE) was “pancreas: papillary adenocarcinoma, carcinoma in situ”, the outcome (Carcinogen: N-NITROSO(2-HYDROXYPROPYL)(2-OXOPROPYL)AMINE, 61499-28-3, Doses [Carcinogen]: 170 MG/KG (TOTAL DOSE) INFUSED CONTINUOUSLY FOR 9 D, Doses [Promoter]: 0, 1% IN DIET FOR DURATION OF STUDY BEGINNING 2 WK POST CARCINOGEN TREATMENT (STUDY DURATION: 28 WK), Route [Carcinogen]: SUBCUTANEOUS, Route [Promoter]: ORAL, Species: HAMSTER, Strain/Sex: SYRIAN/FEMALE) was “pancreas: carcinoma in situ, adenocarcinoma” and the outcome (Carcinogen: N-NITROSO(2-HYDROXYPROPYL)(2-OXOPROPYL)AMINE, 61499-28-3, Doses [Carcinogen]: 400 MG/KG (TOTAL DOSE) ADMINISTERED CONTINUOUSLY BY OSMOTIC PUMP FOR 14 D, Doses [Promoter]: 0, 1% IN DIET FOR 15 WK BEGINNING 2 WK PRIOR TO CARCINOGEN TREATMENT (STUDY DURATION: 29 WK), Route [Carcinogen]: SUBCUTANEOUS, Route [Promoter]: ORAL, Species: RAT, Strain/Sex: SPRAGUE-DAWLEY/MALE) was “kidney: tumor; lung: adenoma”. For the same compound, the outcome (Carcinogen: N-NITROSO(2-HYDROXYPROPYL)(2-OXOPROPYL)AMINE, 61499-28-3, Doses [Carcinogen]: 400 MG/KG VIA OSMOTIC PUMP CONTINUOUSLY FOR 14 D, Doses [Promoter]: 0, 1% IN DIET 2 WK PRIOR TO AND 13 WK POST CARCINOGEN TREATMENT (STUDY DURATION: 27 WK), Route [Carcinogen]: SUBCUTANEOUS, Route [Promoter]: ORAL, Species: RAT, Strain/Sex: CD-1/MALE) was “kidney: tumor; lung: adenoma”.
For `CCCCCCCCCC(=O)O[C@@H]1[C@@H](C)[C@@]2(O)[C@@H](C=C(CO)C[C@]3(O)C(=O)C(C)=C[C@@H]23)[C@@H]2C(C)(C)[C@]12OC(=O)CCCCCCCCC`, the outcome (Carcinogen: 7,12-DIMETHYLBENZ(A)ANTHRACENE, Doses [Carcinogen]: TOP, Route [Carcinogen]: DERMAL, Route [Promoter]: DERMAL, Species: MOUSE, Strain/Sex: MALE,FEMALE) is listed as “forestomach”.
